Our source for the Activity, Papp and IC50 values is ChEMBL document CHEMBL4266016, “Synthesis, Racemic X-ray Crystallographic, and Permeability Studies of Bioactive Orbitides from Jatropha Species” (J Nat Prod, 2018).

The IC50 is the midpoint of a concentration-inhibition curve.

Square brackets hold non-standard residues; d marks the D form. Peptide text beside a SMILES is read from it. NMeF = CN[C@@H](Cc1ccccc1)C(=O)O; NMeI = CC[C@H](C)[C@H](NC)C(=O)O; NMeL = CN[C@@H](CC(C)C)C(=O)O; NMeS = CN[C@@H](CO)C(=O)O; Sar = CNCC(=O)O

One data set deals with Caco-2. Description: Cytotoxicity against human Caco2 cells at 0.5 to 64 uM after 2 hrs by resazurin dye based fluorescence assay. Type of data set: cell-based. Particulars: caco-2, 2 h. For orientation: The colour change of resazurin is a common sign of viable cells or microbes.
Data set [1] in a line: Apparent permeability across human Caco2 cells at 50 uM after 90 mins by LC-MS analysis. Particulars: caco-2, 1.5 h. Type of data set: ADME, cell-based. On the technique in general: Passage across Caco-2 layers is used to estimate intestinal permeability.
A short description of data set [2]: Apparent permeability of the compound at 50 uM after 5 hrs by PAMPA. The class given is ADME. For orientation: The PAMPA barrier holds no transporters, so it reflects passive diffusion.
Data set [3] in a line: Inhibition of porcine pepsin using EDANS-DABCYL as substrate pretreated for 5 mins followed by substrate addition measured for 5 mins by spectrophotometric method. Also noted: species or system Sus scrofa.

On to `CC[C@H](C)[C@@H]1NC(=O)[C@H]([C@@H](C)O)NC(=O)CNC(=O)CNC(=O)[C@H](Cc2ccccc2)NC(=O)CNC(=O)[C@H](Cc2ccccc2)NC(=O)[C@H]([C@@H](C)CC)NC1=O` (cyclo(FGFGGTII)), for which the Activity entry in the data set with Caco-2 is reported as “Non-Toxic”. The Papp result in data set [1] and in data set [2] was “Impermeable” each time.

On to `CC[C@H](C)[C@@H]1NC(=O)[C@H]([C@@H](C)O)NC(=O)CN(C)C(=O)CNC(=O)[C@H](Cc2ccccc2)NC(=O)CNC(=O)[C@H](Cc2ccccc2)N(C)C(=O)[C@H]([C@@H](C)CC)NC1=O` (cyclo(FG[Sar]TII[NMeF]G)), for which the Papp entry in data set [1] and in data set [2] was “Impermeable” in each case.

Regarding `CC[C@H](C)[C@@H]1NC(=O)[C@H]([C@@H](C)O)NC(=O)CN(C)C(=O)CNC(=O)[C@H](Cc2ccccc2)NC(=O)CNC(=O)[C@H](Cc2ccccc2)N(C)C(=O)[C@H]([C@@H](C)CC)N(C)C1=O` (cyclo(FG[Sar]TI[NMeI][NMeF]G)), the Papp result in data set [1] and in data set [2] was “Impermeable” throughout.

As for `CC[C@H](C)[C@@H]1NC(=O)[C@H]([C@@H](C)O)NC(=O)CN(C)C(=O)CN(C)C(=O)[C@H](Cc2ccccc2)NC(=O)CN(C)C(=O)[C@H](Cc2ccccc2)N(C)C(=O)[C@H]([C@@H](C)CC)NC1=O` (cyclo(F[Sar][Sar]TII[NMeF][Sar])), the Papp entry in data set [1] and in data set [2] was “Impermeable” in each case.

As for `CC[C@H](C)[C@@H]1NC(=O)CNC(=O)[C@H](CC(C)C)NC(=O)[C@H]([C@@H](C)CC)NC(=O)[C@H]([C@@H](C)CC)NC(=O)[C@H](CO)NC(=O)CNC(=O)[C@H](CC(C)C)NC1=O` (cyclo(GILGSIIL)), in the data set with Caco-2, the Activity entry is “Non-Toxic”. The Papp result in data set [1] and in data set [2] was “Impermeable” each time.

Regarding `CC[C@H](C)[C@@H]1NC(=O)CNC(=O)[C@H](CC(C)C)NC(=O)[C@H]([C@@H](C)CC)NC(=O)[C@H]([C@@H](C)CC)NC(=O)[C@H](CO)N(C)C(=O)CNC(=O)[C@H](CC(C)C)NC1=O` (cyclo(GILG[NMeS]IIL)), the Papp entry in data set [1] and in data set [2] was “Impermeable” throughout.

On to `CC[C@H](C)[C@@H]1NC(=O)CNC(=O)[C@H](CC(C)C)NC(=O)[C@H]([C@@H](C)CC)NC(=O)[C@H]([C@@H](C)CC)NC(=O)[C@H](CO)NC(=O)CN(C)C(=O)[C@H](CC(C)C)NC1=O` (cyclo(GIL[Sar]SIIL)), for which the Papp result in data set [1] and in data set [2] was “Impermeable” throughout.

As to `CC[C@H](C)[C@@H]1NC(=O)CNC(=O)[C@H](CC(C)C)NC(=O)[C@H]([C@@H](C)CC)NC(=O)[C@H]([C@@H](C)CC)NC(=O)[C@H](CO)N(C)C(=O)CN(C)C(=O)[C@H](CC(C)C)NC1=O` (cyclo(GIL[Sar][NMeS]IIL)), the Papp result in data set [1] and in data set [2] was “Impermeable” throughout.

Turning to `CC(C)C[C@@H]1NC(=O)CNC(=O)[C@@H]2CCCN2C(=O)CNC(=O)[C@H](Cc2c[nH]c3ccccc23)NC(=O)[C@H](CC(C)C)NC(=O)[C@H](CC(N)=O)NC(=O)[C@H](CC(C)C)NC1=O` (cyclo(GLLNLWGP)), the Activity result in the data set on Caco-2 is reported as “Non-Toxic”. In addition, the Papp result in data set [1] and in data set [2] was “Impermeable” in each case. Further, the IC50 in data set [3] was 900 nM.

Regarding `CC[C@H](C)[C@@H]1NC(=O)[C@H]([C@@H](C)CC)N(C)C(=O)[C@H](CO)NC(=O)CN(C)C(=O)[C@H](CC(C)C)N(C)C(=O)[C@H]([C@@H](C)CC)NC(=O)CN(C)C(=O)[C@H](CC(C)C)NC1=O` (cyclo(IL[Sar]I[NMeL][Sar]S[NMeI])), the Papp entry in data set [1] was “Impermeable”; in data set [2] it was “Permeable”.
